Measurements taken from patent US4540700A, “Treatment of diabetic complications with certain spiro-imidazolidine-diones” (Alcon Laboratories, Inc., priority 1984, dated 1985).

Test system: cataract formation in galactocemic rats
Assay: in vivo dose response by intubation (per oral) in galactocemic rats, cataract (vacuole) formation
Design: species or system Charles River CD (Sprague-Dawley derived) male rats
Description: B. In vivo dose response studies were conducted to test the in vivo activity of the following compounds by intubation (per oral) in galactocemic rats on a 30% galactose diet previously described:
Stock suspensions of the test compounds and all dilutions of the compound were formulated with 0.03% by weight Tween 80.
Healthy, Charles River CD (outbred albino, Sprague-Dawley derived) male rats, aged 20-30 days, without observable ocular defects and ranging in weight from 35-45 grams, were acclimated to experimental conditions (in quarantine) for two days prior to beginning the study.
Rats were individually assigned to one of twenty-three groups according to a random number schedule. Two rats, belonging to the same drug-diet treatment group, were housed per cage. Treatment and control groups consisted of six (6) rats each with no replacement in the event of death, and were designated as follows:
Lenses of all eyes were examined with a hand-held ophthalmoscope in the early stages of cataract development and a penlight for the stages, snowflake-like, snowflake, and nuclear cataract. Lens grading occurred every day for the first ten study days, and then every other day until study Day 14.
The relative potency determination was made at 7 drug levels over half log dose intervals. The response (percent cataracts formed and/or the time to cataract formation) was plotted against mg/kg and/or moles/kg.
The study was directed to the suppression and/or elimination of the initial stages of cataract development characterized by vacuoles or snowflake-likeopacities only. It was assumed therefore that suppression and/or elimination of vacuoles or lens opacification by the test drugs affects the transport, absorption and/or metabolism of galactose in such a manner as to prevent subsequent osmotic disturbances normally leading to tissue degeneration and advanced cataract. Advanced cataract defined as stages 2-4 of the Sipple classification was assumed to be of secondary importance to the etiology of cataract inhibition.
In the event where cataract stage other than vacuole formed, such as snowflake-like opacities, this cataract was counted similarly as vacuole in percent cataract formation.
This study yielded this expected effect in the control groups.
All animals were fed Purina Laboratory Chow and water, ad libitum, for the two day acclimation period. All drugs were dosed orally by intubation using an animal feeding needle (Popper and Sons), 18 or 20 gauge, attached to a 1 or 3 ml syringe. Once the dosing time schedule was established, the schedule was followed throughout the study to compensate for any diurnal variation.
The animals were kept on a twelve hour day/night cycle. The temperature and humidity were determined each day at the scheduled dosing time of 1:00 p.m.
The animals were weighed every other day and adjustments to dosage amounts to compensate for weight gain were made each day prior to the dose time. All food was routinely withheld from all animal groups for four hours (9:00 a.m.) prior to the drug dose and restored two hours (3:00 p.m.) post-dose. Otherwise sufficient amounts of chow or diet mixture were maintained in the food hopper to allow the animals to eat ad libitum. There were two days of drug dosage with the animals remaining on Purina Laboratory Chow (Days 1 and 2). The 30% galactose diet mixture was introduced to the animals two hours post-dose on Day 3 which constituted Day 1 of the study.
All eyes were examined with a hand-held ophthalmoscope and/or penlight at the times designated in the Experimental Design section.
It has been found in previous studies that dilation of the eye with a mydriactic (i.e. Mydriacyl) is not necessary for accurate grading, due to the semi-transparent nature of the rat iris. In the early stages (i.e., grades -, ±, and +) the lens was observed by reflecting the ophthalmoscope beam off the retina back through the lens and iris. Using this technique, vacuoles appear as dark, almost opaque patches. […]

[1] = relative to Sarges Racemic, observation day 12, 95% confidence limits

O=C1NC(=O)C2(N1)c1ccccc1-c1ccc(F)cc12 (racemic) [Compound L, dl-Spiro(2-fluorofluoren-9,4'-imidazolidine)-2',5'-dione]
Percent of Rat Eyes With at Least Vacuoles Formed (4.0 mg/kg p.o., Day 8, listed as 2-fluoro): 0% | Percent of Rat Eyes With at Least Vacuoles Formed (4.0 mg/kg p.o., Day 9): 0.0% | Percent of Rat Eyes With at Least Vacuoles Formed (4.0 mg/kg p.o., Day 9, listed as 2-fluoro): 0% | Percent of Rat Eyes With at Least Vacuoles Formed (4.0 mg/kg p.o., Day 10): 0.0% | Percent of Rat Eyes With at Least Vacuoles Formed (4.0 mg/kg p.o., Day 10, listed as 2-fluoro): 0% | Percent of Rat Eyes With at Least Vacuoles Formed (4.0 mg/kg p.o., Day 12): 0.0% | Percent of Rat Eyes With at Least Vacuoles Formed (4.0 mg/kg p.o., Day 12, listed as 2-fluoro): 0% | Percent of Rat Eyes With at Least Vacuoles Formed (4.0 mg/kg p.o., Day 14): 0.0% | Percent of Rat Eyes With at Least Vacuoles Formed (4.0 mg/kg p.o., Day 14, listed as 2-fluoro): 0% | Percent of Rat Eyes With at Least Vacuoles Formed (12.6 mg/kg p.o., Day 0): 0% | Percent of Rat Eyes With at Least Vacuoles Formed (12.6 mg/kg p.o., Day 1): 0% | Percent of Rat Eyes With at Least Vacuoles Formed (12.6 mg/kg p.o., Day 2): 0% | Percent of Rat Eyes With at Least Vacuoles Formed (12.6 mg/kg p.o., Day 3): 0% | Percent of Rat Eyes With at Least Vacuoles Formed (12.6 mg/kg p.o., Day 4): 0% | Percent of Rat Eyes With at Least Vacuoles Formed (12.6 mg/kg p.o., Day 5): 0% | Percent of Rat Eyes With at Least Vacuoles Formed (12.6 mg/kg p.o., Day 6): 0.0% | Percent of Rat Eyes With at Least Vacuoles Formed (12.6 mg/kg p.o., Day 6, listed as 2-fluoro): 0% | Percent of Rat Eyes With at Least Vacuoles Formed (12.6 mg/kg p.o., Day 7): 0.0% | Percent of Rat Eyes With at Least Vacuoles Formed (12.6 mg/kg p.o., Day 7, listed as 2-fluoro): 0% | Percent of Rat Eyes With at Least Vacuoles Formed (12.6 mg/kg p.o., Day 8): 0.0% | Percent of Rat Eyes With at Least Vacuoles Formed (12.6 mg/kg p.o., Day 8, listed as 2-fluoro): 0% | Percent of Rat Eyes With at Least Vacuoles Formed (12.6 mg/kg p.o., Day 9): 0.0% | Percent of Rat Eyes With at Least Vacuoles Formed (12.6 mg/kg p.o., Day 9, listed as 2-fluoro): 0% | Percent of Rat Eyes With at Least Vacuoles Formed (12.6 mg/kg p.o., Day 10): 0.0% | Percent of Rat Eyes With at Least Vacuoles Formed (12.6 mg/kg p.o., Day 10, listed as 2-fluoro): 0% | Percent of Rat Eyes With at Least Vacuoles Formed (12.6 mg/kg p.o., Day 12): 0.0% | Percent of Rat Eyes With at Least Vacuoles Formed (12.6 mg/kg p.o., Day 12, listed as 2-fluoro): 0% | Percent of Rat Eyes With at Least Vacuoles Formed (12.6 mg/kg p.o., Day 14): 0.0% | Percent of Rat Eyes With at Least Vacuoles Formed (12.6 mg/kg p.o., Day 14, listed as 2-fluoro): 0% | Percent of Rat Eyes With at Least Vacuoles Formed (40 mg/kg p.o., Day 0): 0% | Percent of Rat Eyes With at Least Vacuoles Formed (40 mg/kg p.o., Day 1): 0% | Percent of Rat Eyes With at Least Vacuoles Formed (40 mg/kg p.o., Day 2): 0% | Percent of Rat Eyes With at Least Vacuoles Formed (40 mg/kg p.o., Day 3): 0% | Percent of Rat Eyes With at Least Vacuoles Formed (40 mg/kg p.o., Day 4): 0% | Percent of Rat Eyes With at Least Vacuoles Formed (40 mg/kg p.o., Day 5): 0% | Percent of Rat Eyes With at Least Vacuoles Formed (40 mg/kg p.o., Day 6): 0.0% | Percent of Rat Eyes With at Least Vacuoles Formed (40 mg/kg p.o., Day 6, listed as 2-fluoro): 0% | Percent of Rat Eyes With at Least Vacuoles Formed (40 mg/kg p.o., Day 7): 0.0% | Percent of Rat Eyes With at Least Vacuoles Formed (40 mg/kg p.o., Day 7, listed as 2-fluoro): 0% | Percent of Rat Eyes With at Least Vacuoles Formed (40 mg/kg p.o., Day 8): 0.0% | Percent of Rat Eyes With at Least Vacuoles Formed (40 mg/kg p.o., Day 8, listed as 2-fluoro): 0% | Percent of Rat Eyes With at Least Vacuoles Formed (40 mg/kg p.o., Day 9): 0.0% | Percent of Rat Eyes With at Least Vacuoles Formed (40 mg/kg p.o., Day 9, listed as 2-fluoro): 0% | Percent of Rat Eyes With at Least Vacuoles Formed (40 mg/kg p.o., Day 10): 0.0% | Percent of Rat Eyes With at Least Vacuoles Formed (40 mg/kg p.o., Day 10, listed as 2-fluoro): 0% | Percent of Rat Eyes With at Least Vacuoles Formed (40 mg/kg p.o., Day 12): 0.0% | Percent of Rat Eyes With at Least Vacuoles Formed (40 mg/kg p.o., Day 12, listed as 2-fluoro): 0% | Percent of Rat Eyes With at Least Vacuoles Formed (40 mg/kg p.o., Day 14): 0.0% | Percent of Rat Eyes With at Least Vacuoles Formed (40 mg/kg p.o., Day 14, listed as 2-fluoro): 0% | activity in vivo relative to the Sarges compound (rat studies): unexpectedly and significantly more active | Relative Potency (antilog) [1]: 4.58 | log relative potency for eyes with vacuoles or more advanced cataracts [1]: 0.6605
